Experiment [1] has as its system RNF12 SR-motif. Put plainly: RNF12 SR-motif phosphorylation in mouse cortical neurons by phos-tag immunoblotting. The experiment is classed as cell-based. The note with it: mature mouse cortical neurons cultured for 21 days, 10 μM, 4 h. The method, then: Figure 7 The SRPK-RNF12 Signaling Pathway Operates in Neurons (A) Primary cortical neurons isolated from E16.5 C57BL6 mice were cultured for the indicated number of days in vitro (DIV) and RNF12, SRPK1, and SRPK2, synaptophysin and actin levels analyzed via immunoblotting alongside the indicated mESC lines. (B) Cortical neurons were cultured for 21 days and treated with 10 μM MG132 and protein levels analyzed by immunoprecipitation and immunoblotting (REX1) and immunoblotting (RNF12 and ERK1/2). (C) Cortical neurons were cultured in vitro for the indicated number of days (DIV) and RNF12 and MAP2 neuron specific marker analyzed by immunofluorescence. Scale bar: 20 μm. (D) RNF12 SR-motif phosphorylation during in vitro mouse cortical neuron maturation was analyzed via phos-tag immunoblotting for RNF12. […] Synaptophysin and actin levels were determined by immunoblotting. […] Synaptophysin and actin levels were determined by immunoblotting. (F) The SRPK-RNF12-REX1 signaling pathway regulates neural gene expression and is disrupted in intellectual disability disorders. SRPK phosphorylates the RNF12 SR-motif to promote REX1 ubiquitylation and proteasomal degradation, which acts as a “brake” for neural gene expression in self-renewing pluripotent stem cells. In intellectual disability, inactivating mutations in SRPKs or RNF12 lead to REX1 accumulation and aberrant induction of neural genes. […]
For orientation: A western blot detects proteins with antibodies after separation by electrophoresis.

The target of experiment [2] is 50 representative kinases. Put plainly: Kinase inhibitor profiling, in vitro kinase assays for 50 representative kinases. The experiment is classed as biochemical. Particulars: 1 μM, SRPK1 compared with 49 other kinases. Here is the method:
Kinase activity towards specific peptides was assessed in comparison to DMSO control. Full details are available at http://www.kinase-screen.mrc.ac.uk/services/express-screen.
Supplemental Figure Legends
Figure S1. Differential inhibitor sensitivities and expression profiles of SRPK kinases (Related to Figure 1). (A) Wild-type (WT) mESCs were analysed for protein copy number by absolute quantitative proteomics. SRPK1, SRPK2 and SRPK3 protein copy numbers are shown.
Data are represented as mean ± S.E.M. (n=3). Unpaired Student’s t test, two-sided, confidence level 95%. (****) P<0.0001. ND = not detected. (B) Inhibition of RNF12 phosphorylation in vitro by SRPK1 and SRPK2 in the presence of varying concentrations of the indicated SRPK inhibitors was determined by immunoblotting for RNF12 phospho-Ser214 (Left). RNF12 levels are shown as a control. Immunoblots were quantified to generate SRPK inhibitor dose-response curves for inhibition of RNF12 phosphorylation by SRPK1 and SRPK2 in vitro (Right). (C) WT, Srpk1-/- and Srpk2-/- mESCs were cultured and SRPK protein expression was analysed via immunoblotting. […]
SR-motif phosphorylation of HA-immunoprecipitated RNF12 analysed by phos-tag immunoblotting. […]
(DYRK1A inhibitor), WEHI-345 (RIPK2 inhibitor), IRAK-4-Inhibitor-a (IRAK4 inhibitor) and GSK-461364 (PLK1/2 inhibitor) for 4 h, and RNF12 phosphorylation analysed via phos-tag immunoblotting. […]

`CCc1cc2c(cc1-c1cccc(S(=O)(=O)F)c1)C(C)(C)c1[nH]c3cc(C#N)ccc3c1C2=O` [SRPKIN-1]: in experiment [1], the “RNF12 phosphorylation (phos-tag)” value is recorded as “suppressed RNF12 phosphorylation”. The kinase inhibition specificity result in experiment [2] is reported as “highly specific”.

(Values after PMC7725506, “Functional Diversification of SRSF Protein Kinase to Control Ubiquitin-Dependent Neurodevelopmental Signaling” (Developmental Cell, 2020).)
